From patent US6352958B1, “Cycloimido-substituted benzofused heterocyclic herbicides” (FMC Corporation, priority 1997, dated 2002) come the findings set out here.

Molecules are shown by their SMILES.

In general, melting point refers to the temperature of the solid-liquid transition.

For series [1], the system named is blackgrass (Aloepecurus myosuroides). Nature of the series: Preemergence herbicidal activity, blackgrass. It counts as in vivo. The conditions noted are these: Alopecurus myosuroides, pre-emergence, Rate of Application 0.3 Kg/Ha, examined after 12-17 days, read-out: PREEMERGENCE HERBICIDAL ACTIVITY (% CONTROL) ALOMY.
The subject of series [2] is common cocklebur (Xanthium strumarium L.). Put plainly: Postemergence herbicidal activity, cocklebur. In kind it is in vivo. The conditions noted are these: Xanthium strumarium, post-emergence, rate of application 0.3 Kg/Ha, rated after 12-17 days, read-out: Postemergence herbicidal activity (% control) XANPE.
Series [3] has as its system wheat (Triticum aestivum var. Lew). Nature of the series: Postemergence herbicidal activity, wheat. The settings on record: Triticum aestivum, post-emergence, rate of application 0.3 Kg/Ha, rated after 12-17 days, read-out: Postemergence herbicidal activity (% control) WHT. It counts as in vivo.
Series [4] relates to blackgrass (Aloepecurus myosuroides). Put plainly: Postemergence herbicidal activity, blackgrass. It counts as in vivo. The conditions noted are these: Alopecurus myosuroides, post-emergence, rate of application 0.3 Kg/Ha, rated after 12-17 days, read-out: Postemergence herbicidal activity (% control) ALOMY.
Series [5] has as its system green foxtail (Setaria viridis). Put plainly: Preemergence herbicidal activity, green foxtail. It counts as in vivo. The conditions noted are these: Setaria viridis, pre-emergence, Rate of Application 0.3 Kg/Ha, examined after 12-17 days, read-out: PREEMERGENCE HERBICIDAL ACTIVITY (% CONTROL) SETVI.
In series [6] the test system is soybean (Glycine max var. Winchester). Nature of the series: Postemergence herbicidal activity, soybean. In kind it is in vivo. The conditions noted are these: Glycine max, post-emergence, rate of application 0.3 Kg/Ha, rated after 12-17 days, read-out: Postemergence herbicidal activity (% control) SOY.
For series [7], the system named is common chickweed (Stellaria media). Put plainly: Postemergence herbicidal activity, chickweed. In kind it is in vivo. The conditions noted are these: Stellaria media, post-emergence, rate of application 0.3 Kg/Ha, rated after 12-17 days, read-out: Postemergence herbicidal activity (% control) STEME.

For the compound `CC(C)c1nc2c(-n3c(=O)cc(C(F)(F)F)n(C)c3=O)c(F)cc(Cl)c2o1` [Compound 28, 1-METHYL-6-TRIFLUOROMETHYL-3-[7-CHLORO-5-FLUORO-2-(1-METHYLETHYL)BENZOXAZOL4-YL]-2,4(1H,3H)-PYRIMIDINEDIONE], the inhibition at 300 g/ha in series [1] was 100%; in series [2] it was 90%; in series [3] it was 80%; in series [4], 100%; in series [5], 100%; in series [6], 100%. In addition, the inhibition at 300 g/ha in series [7] turned out to be 100%.
`CCc1nc2c(-n3c(=O)cc(C(F)(F)F)n(C)c3=O)c(F)cc(Cl)c2[nH]1` [Compound 367, 3-(4-CHLORO-2-ETHYL-6-FLUOROBENZIMIDAZOL-7-YL)-1-METHYL-6-TRIFLUOROMETHYL-2,4(1H,3H)-PYRIMIDINEDIONE] displayed a melting point of 150 to 155 °C. The inhibition at 300 g/ha in series [1] was 90%. Besides, in series [2], the inhibition at 300 g/ha was 100%. Further, in series [3], the inhibition at 300 g/ha was found to be 100%. Moreover, the inhibition at 300 g/ha in series [4] amounted to 100%. Moreover, in series [5], the inhibition at 300 g/ha is 100%. For the same compound, in series [6], the inhibition at 300 g/ha was 100%. Further, the inhibition at 300 g/ha in series [7] is 100%.
With `Cn1c(C(F)(F)F)cc(=O)n(-c2c(F)cc(Cl)c3[nH]c(C(F)(F)F)cc23)c1=O` [Compound 500, 3-(7-CHLORO-5-FLUORO-2-TRIFLUOROMETHYLINDOL-4-YL)-1-METHYL-6-TRIFLUOROMETHYL-2,4(1H,3H)-PYRIMIDINEDIONE], the melting point lay in the range of 208 to 210 °C. For the same compound, in series [1], the inhibition at 300 g/ha amounted to 75%. The inhibition at 300 g/ha in series [2] amounted to 100%. Moreover, the inhibition at 300 g/ha in series [3] came out at 65%. Also, in series [4], the inhibition at 300 g/ha stood at 80%. In series [5], the inhibition at 300 g/ha stood at 100%. In addition, the inhibition at 300 g/ha in series [6] was determined as 95%. For the same compound, the inhibition at 300 g/ha in series [7] stood at 90%.
